The target of assay [1] is T1, cathepsin L protease (Homo sapiens, UniProt P07711).
T1 construct: purchased BPS Bioscience
Type of assay: biochemical.

For assay [2], the target named is T2, SpikeS1-ACE2 interaction (UniProt P0DTC2+Q9BYF1).
T2 construct: Rabbit Fc-tagged SARS-Cov-2 Spike S1 RBD; purchased Cayman Chemical Company
Put plainly: biochemical. The format is binding, SARS-CoV-2. The settings on record: read-out: Percentage inhibition (wrt 100% initial activity).

In US20230301948A1, “REDUCTION OF VIRAL INFECTIONS” (PHOXGEN LIMITED, priority 2020, published 2023) one finds Percentage inhibition and inhibition data, which are given here for 2 compounds.

Where two headings read alike, the source gives them in different places. Marks after values point to notes of the source that are not given here.

T1 sequence (P07711 114-333): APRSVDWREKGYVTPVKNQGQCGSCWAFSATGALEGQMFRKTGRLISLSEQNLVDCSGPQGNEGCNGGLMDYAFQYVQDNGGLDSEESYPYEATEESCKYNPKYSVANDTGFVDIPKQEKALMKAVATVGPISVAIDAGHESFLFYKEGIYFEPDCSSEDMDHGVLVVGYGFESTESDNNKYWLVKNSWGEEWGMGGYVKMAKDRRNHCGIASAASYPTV

Regarding `CC(C)C[C@H](NC(=O)[C@H]1O[C@@H]1C(=O)O)C(=O)NCCCCN=C(N)N` [Composition E-64, E-64], the Percentage inhibition in assay [1] (0.0001 µM) is on record as -15.5%; in assay [1] (0.001 µM) it was -1.1%; in assay [1] (0.01 µM) it was 17.2 ** %; in assay [1] (0.1 µM), 56.3 ** %.

The term inhibition denotes how much of the control response was suppressed. For `Cc1cc(O)c2c(c1)C(=O)c1cc(O)cc(O)c1C2=O` [Emodin], the inhibition at 0.01 µg/mL in assay [2] (0.01 µg/ml) came to 35.5%. Also, in assay [2] (0.1 µg/ml), the inhibition at 0.1 µg/mL is 38.9%. The inhibition at 1 µg/mL in assay [2] (1 µg/ml) came out at 44.3%. Moreover, in assay [2] (10 µg/ml), the inhibition at 10 µg/mL is 48.9%. Moreover, the inhibition at 50 µg/mL in assay [2] (50 µg/ml) stood at 62.8%.
